We go through 15 compounds from ChEMBL document CHEMBL1131704, “trans-2,6-,3,6- and 4,6-diaza-5,6,6a,7,8,12b-hexahydro-benzo[c]phenanthrene-10,11- diols as dopamine agonists” (Bioorg Med Chem Lett, 1999).

The target in experiment [1] is Dopamine D1 and D2 receptor (Homo sapiens) (UniProt P14416+P21728). Description: Ratio of Ki for human dopamine-2(D-2) and dopamine-1(D-1) receptors. It counts as protein assay.
Experiment [2] has as its target T1, D(1A) dopamine receptor (Homo sapiens, UniProt P21728). Description: Intrinsic activity relative against Dopamine receptor D1. It counts as functional.
For experiment [3], the target named is T1, D(1A) dopamine receptor. Description: Potency in adenylate cyclase functional assay against Dopamine receptor D1.
Experiment [4] addresses T1, D(1A) dopamine receptor. Description: Binding affinity to Dopamine receptor D1 by using radioligand [125I]SCH-23982 in HEK cells. The format is cell-based, HEK293.
Another experiment concerns the target D(2) dopamine receptor (Homo sapiens, UniProt P14416). Description: Binding affinity to human Dopamine receptor D2 by using radioligand [3H]spiperone in LTK cells. It counts as cell-based.

T1 sequence (P21728 whole entry): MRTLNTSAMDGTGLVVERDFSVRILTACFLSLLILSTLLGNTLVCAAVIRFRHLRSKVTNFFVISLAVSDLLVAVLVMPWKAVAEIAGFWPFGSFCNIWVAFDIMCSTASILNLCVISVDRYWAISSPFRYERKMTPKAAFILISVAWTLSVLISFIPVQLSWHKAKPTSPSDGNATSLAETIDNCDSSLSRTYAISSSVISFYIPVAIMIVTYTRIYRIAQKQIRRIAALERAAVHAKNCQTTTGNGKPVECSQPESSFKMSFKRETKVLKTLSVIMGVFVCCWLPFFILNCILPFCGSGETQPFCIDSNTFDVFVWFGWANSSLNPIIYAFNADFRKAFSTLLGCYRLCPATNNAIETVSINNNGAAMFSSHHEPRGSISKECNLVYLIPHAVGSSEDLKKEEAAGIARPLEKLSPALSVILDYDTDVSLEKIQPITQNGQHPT
Dopamine D1 and D2 receptor (Homo sapiens), sequence (P14416 whole entry, looked up): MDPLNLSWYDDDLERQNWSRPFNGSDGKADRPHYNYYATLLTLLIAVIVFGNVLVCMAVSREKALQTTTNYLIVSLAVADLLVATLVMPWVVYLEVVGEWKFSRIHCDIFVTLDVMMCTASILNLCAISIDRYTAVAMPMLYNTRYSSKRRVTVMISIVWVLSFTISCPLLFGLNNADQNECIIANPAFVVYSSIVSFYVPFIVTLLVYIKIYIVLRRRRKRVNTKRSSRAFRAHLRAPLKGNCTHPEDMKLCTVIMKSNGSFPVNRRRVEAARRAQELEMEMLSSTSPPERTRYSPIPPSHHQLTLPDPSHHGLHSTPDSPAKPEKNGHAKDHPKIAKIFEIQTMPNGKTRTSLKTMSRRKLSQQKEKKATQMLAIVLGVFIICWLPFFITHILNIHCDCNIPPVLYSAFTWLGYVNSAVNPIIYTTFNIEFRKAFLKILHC
Dopamine D1 and D2 receptor (Homo sapiens), sequence (P21728 whole entry, looked up): as the sequence (P21728 whole entry) above
D(2) dopamine receptor, sequence (P14416 whole entry): as the sequence (P14416 whole entry, looked up) above

As to `CCCc1cc2c(s1)CN[C@@H]1CCc3cc(O)c(O)cc3[C@@H]21`, the Ratio in experiment [1] was 14. Further, on D(1A) dopamine receptor [2], the Intrinsic activity was 125%.
Consider `Oc1cc2c(cc1O)[C@H]1c3cnccc3CN[C@@H]1CC2`, for which the EC50 (usually the concentration at which the effect is half-maximal) on D(1A) dopamine receptor [3] was 320 nM. The Ratio in experiment [1] is 1. The inhibition constant (Ki) (usually the equilibrium dissociation constant of an inhibitor or competing ligand from its target) was 1100 nM at D(1A) dopamine receptor [4] and 1300 nM at D(2) dopamine receptor. Further, the Intrinsic activity at D(1A) dopamine receptor [2] was found to be 81%.
On D(1A) dopamine receptor [3], `Cc1cncc2c1CN[C@@H]1CCc3cc(O)c(O)cc3[C@@H]21` returned an EC50 of 230 nM. Besides, the Ratio in experiment [1] turned out to be 0.36. In addition, the Ki on D(1A) dopamine receptor [4] stood at 1100 nM; on D(2) dopamine receptor, 400 nM. In addition, the Intrinsic activity at D(1A) dopamine receptor [2] came out at 75%.
Take `Cc1ccc2c(n1)CN[C@@H]1CCc3cc(O)c(O)cc3[C@@H]21`: the response on D(1A) dopamine receptor [3] was half-maximal at 23 nM (EC50). In addition, in experiment [1], the Ratio came to 10. Moreover, the results for the Ki on D(1A) dopamine receptor [4] and on D(2) dopamine receptor were 140 nM and 1400 nM, respectively. The Intrinsic activity at D(1A) dopamine receptor [2] came to 121%.
For `Oc1cc2c(cc1O)[C@H]1c3cncc(F)c3CN[C@@H]1CC2`, in that order: 800 nM, 2, 390 nM, 890 nM and 126%.
For `CCCc1ccc2c(n1)CN[C@@H]1CCc3cc(O)c(O)cc3[C@@H]21`, in that order: 8.6 nM, 10, 45 nM, 450 nM and 116%.
For `Oc1cc2c(cc1O)[C@H]1c3ccncc3CN[C@@H]1CC2`, in that order: 38 nM, 31, 140 nM, 4400 nM and 131%.
For `Oc1cc2c(cc1O)[C@H]1c3cc4c(nc3CN[C@@H]1CC2)CCCC4`, it took 63 nM to reach a half-maximal effect on D(1A) dopamine receptor [3] (EC50). Further, the Ratio in experiment [1] was determined as 6. Moreover, the results for the inhibition constant Ki at D(1A) dopamine receptor [4] and at D(2) dopamine receptor were 560 nM and 3600 nM, respectively. At D(1A) dopamine receptor [2], the Intrinsic activity stood at 136%.
For `Oc1cc2c(cc1O)[C@H]1c3ccc(F)nc3CN[C@@H]1CC2`, in that order: 18 nM, 12, 180 nM, 2200 nM and 141%.
Consider `Cc1cc2c(nc1C)CN[C@@H]1CCc3cc(O)c(O)cc3[C@@H]21`, for which it took 120 nM to reach a half-maximal effect on D(1A) dopamine receptor [3] (EC50). The Ratio in experiment [1] was determined as 33. Moreover, the results for the Ki on D(1A) dopamine receptor [4] and on D(2) dopamine receptor were 280 nM and 9100 nM, respectively. Further, the Intrinsic activity at D(1A) dopamine receptor [2] is 134%.
`Cc1cnc2c(c1)[C@@H]1c3cc(O)c(O)cc3CC[C@H]1NC2`: the EC50 on D(1A) dopamine receptor [3] worked out at 110 nM. Also, in experiment [1], the Ratio is 50. The Ki turned out to be 240 nM on D(1A) dopamine receptor [4] and 12000 nM on D(2) dopamine receptor. Moreover, the Intrinsic activity on D(1A) dopamine receptor [2] stood at 156%.
Turning to `Oc1cc2c(cc1O)[C@H]1c3ccccc3CN[C@@H]1CC2`, at D(1A) dopamine receptor [2], the Intrinsic activity was determined as 121%.
Take `CCCCc1cnc2c(c1)[C@@H]1c3cc(O)c(O)cc3CC[C@H]1NC2`: a half-maximal effect at D(1A) dopamine receptor [3] (EC50) was put at 180 nM. Moreover, in experiment [1], the Ratio was 2. Further, the values for the Ki at D(1A) dopamine receptor [4] and on D(2) dopamine receptor were 890 nM and 1900 nM, respectively. Further, the Intrinsic activity at D(1A) dopamine receptor [2] was 118%.
`COc1ccc2c(n1)CN[C@@H]1CCc3cc(O)c(O)cc3[C@@H]21` returned an EC50 at D(1A) dopamine receptor [3] of 8.8 nM. In addition, in experiment [1], the Ratio came to 11. Further, the inhibitory constant (Ki) stood at 49 nM at D(1A) dopamine receptor [4] and 520 nM on D(2) dopamine receptor. Also, the Intrinsic activity on D(1A) dopamine receptor [2] was 114%.
The compound `Oc1cc2c(cc1O)[C@H]1c3cccnc3CN[C@@H]1CC2` returned an EC50 on D(1A) dopamine receptor [3] of 6.7 nM. Further, the Ratio in experiment [1] is 38. The results for the Ki at D(1A) dopamine receptor [4] and on D(2) dopamine receptor were 65 nM and 2500 nM, respectively. The Intrinsic activity at D(1A) dopamine receptor [2] stood at 125%.
